Results: PMC4366261, “Characterization of the Intestinal Absorption of Seven Flavonoids from the Flowers of Trollius chinensis Using the Caco-2 Cell Monolayer Model” (PLoS ONE, 2015)
Several values for one entry are separate records, joined by “and”; a condition that tells them apart may be missing. Identical values can stand only once.

How the values were obtained:
Caco-2 cells = experiment: MTT assay, survival rate of Caco-2 cells; format: cell-based, human; conditions: 4 h
Source text: The human colon adenocarcinoma cell line Caco-2 (No. 3111C0001CCC000100, passage 32) was obtained from the Cell Resource Center, Peking Union Medical College (the headquarters of National Infrastructure of Cell Line Resource, NSTI) on May 3rd, 2013. The cell line was checked free of mycoplasma contamination by PCR and culture, its species origin was confirmed with PCR, and its identity was authenticated with STR profiling (FBI, CODIS). All results of the above tests can be viewed on the website (http://cellresource.cn). The cells were cultured in 25 cm^2 flasks in DMEM medium supplemented with 10% (v/v) FBS, 1% (v/v) NEAA, and 1% (v/v) penicillin-streptomycin, in an atmosphere of 5% CO2 at 37°C and constant moisture. The culture medium was replaced every 2 to 3 days, and the cells were split 1:2 or 1:3 as 80% confluence was obtained.
Caco-2 cells at logarithmic growth phase were seeded into 96-well plates and incubated at 37°C in an atmosphere of 5% CO2 and constant moisture in the incubator. After the cells reached confluence, they were cultured in quadruplicate with 100 μL of HBSS solution (negative control) and compound-containing HBSS solution (seven flavonoids or paclitaxel (positive control) at the concentrations of 25, 50, and 100 μmol/L, respectively) for 4 h. Then, HBSS solution was replaced by 100 μL of MTT solution (0.5 mg/mL), and the supernatant was discarded after 4 h of incubation at 37°C. The cells were shaken with 150 μL of DMSO for 10 min, and the absorbance was read on the microplate reader at 570 nm. The survival rate %=A¯/A0¯×100 , wherein A¯ was the average absorbance value of treatment or positive control group, and A0¯ was the average absorbance value of negative control group.

[1] = Transport experiment across Caco-2 cell monolayer (Papp); format: in vitro ADME, human; conditions: human, 50 μmol/L, 90 min
Experimental: (§1) For cells differentiation to form a confluent monolayer, Caco-2 cells were seeded into the inserts of the 12-well Transwell plates at the density of 1.0×10^5 cells/cm^2. The culture medium was replaced on every other day in the first week, and then at daily intervals for the apical (AP) side and 2 days intervals for the basal (BL) side until the transport experiment was performed 21 days after seeding. The AP and BL sides contained 0.5 and 1.5 mL of culture medium, respectively. […] The cell inserts were considered as qualified only if the resistance reached above 600 Ω cm^2.
(§2) On day 21, the transport experiment was initiated by removal of the culture medium from AP and BL sides. The Caco-2 monolayers were rinsed twice with pre-warmed Hanks balanced salt solution (HBSS) and were incubated with the same solution at 37°C for 30 min. The seven individual test compounds and an equimolar mixture of them were pre-dissolved in DMSO, and then diluted to 25, 50, and 100 μmol/L with an appropriate volume of HBSS to allow the final concentration of DMSO to be less than 1%. The test compounds were added to the AP (0.5 mL) or BL side (1.5 mL), while the receiving chamber contained the corresponding volume of HBSS. Incubation was performed at 37°C for 180 min, with shaking at 50 rpm. At 30, 60, 90, 120, 150, and 180 min, each 0.2 mL of the solution from BL or AP side was collected, and replaced with an equal volume of HBSS. The samples were frozen immediately and stored below-20°C before analysis.
(§3) The apparent permeability coefficients (Papp) were determined in this study by HPLC quantification of the compounds in the receiver chamber after transport across the Caco-2 monolayer. The calculation was carried out in accordance with the formula Papp = (dQ/dt)×(1/A)×(1/C0), wherein dQ/dt was the rate of appearance of the test compound in the receiver compartment (μmol/s); C0 was the initial concentration of test compound in the donor compartment (μmol/mL); and A was the surface area of the Caco-2 monolayer (cm^2). The percentage transported (%) was calculated using the formula % transported = QB/(CS×VD)×100, wherein QB was the quantity of compound in the receiver compartment (μmol); CS was the concentration of test compound in the donor compartment (μmol/mL); VD was the liquid volume of the donor compartment (mL). The transport rate (μmol/h/cm^2) was calculated using the formula transport rate = QB/(t×A), wherein QB was the quantity of compound in the receiver compartment (μmol); t was the incubation time (h); A was the surface area of the Caco-2 monolayer (cm^2).

Caco-2 cell monolayer = experiment: as above; format: in vitro ADME, human; conditions: for Absorption mechanism: from P ratio, time course and concentration course; for P ratio Papp AP→BL/Papp BL→AP: 90 min
Experimental: as §1, §2, §3

[2] = Stability of sample solutions at room temperature by HPLC; format: physicochemical; conditions: sample solution at room temperature, HPLC at 0, 1, 2, 4, 6, 12 and 24 h
Experimental: The intra-day precision was determined by investigating the analytes in sextuplicates during a single day, and the inter-day precision was determined by conducting the intra-day experiment on two consecutive days. […] Each one sample solution of the seven flavonoids was kept at room temperature, and then their stabilities were determined by injecting them into apparatus at 0, 1, 2, 4, 6, 12, and 24 h.

murine ear edema model = conditions: cited from earlier work
influenza virus A = test system: influenza virus A; design: method as in PMID 17193271; conditions: cited from earlier work
P-glycoprotein (P-gp) = biological target: T1, P-glycoprotein (P-gp) (Homo sapiens, UniProt P08183); experiment: Transporter inhibition experiment with verapamil hydrochloride (P-gp) in Caco-2 monolayer; format: in vitro ADME; conditions: 50 μmol/L compound, 100 μmol/L verapamil hydrochloride, AP to BL
T1 construct: endogenous in cells; host or cells: Caco-2 cells
T1 sequence (P08183 whole entry): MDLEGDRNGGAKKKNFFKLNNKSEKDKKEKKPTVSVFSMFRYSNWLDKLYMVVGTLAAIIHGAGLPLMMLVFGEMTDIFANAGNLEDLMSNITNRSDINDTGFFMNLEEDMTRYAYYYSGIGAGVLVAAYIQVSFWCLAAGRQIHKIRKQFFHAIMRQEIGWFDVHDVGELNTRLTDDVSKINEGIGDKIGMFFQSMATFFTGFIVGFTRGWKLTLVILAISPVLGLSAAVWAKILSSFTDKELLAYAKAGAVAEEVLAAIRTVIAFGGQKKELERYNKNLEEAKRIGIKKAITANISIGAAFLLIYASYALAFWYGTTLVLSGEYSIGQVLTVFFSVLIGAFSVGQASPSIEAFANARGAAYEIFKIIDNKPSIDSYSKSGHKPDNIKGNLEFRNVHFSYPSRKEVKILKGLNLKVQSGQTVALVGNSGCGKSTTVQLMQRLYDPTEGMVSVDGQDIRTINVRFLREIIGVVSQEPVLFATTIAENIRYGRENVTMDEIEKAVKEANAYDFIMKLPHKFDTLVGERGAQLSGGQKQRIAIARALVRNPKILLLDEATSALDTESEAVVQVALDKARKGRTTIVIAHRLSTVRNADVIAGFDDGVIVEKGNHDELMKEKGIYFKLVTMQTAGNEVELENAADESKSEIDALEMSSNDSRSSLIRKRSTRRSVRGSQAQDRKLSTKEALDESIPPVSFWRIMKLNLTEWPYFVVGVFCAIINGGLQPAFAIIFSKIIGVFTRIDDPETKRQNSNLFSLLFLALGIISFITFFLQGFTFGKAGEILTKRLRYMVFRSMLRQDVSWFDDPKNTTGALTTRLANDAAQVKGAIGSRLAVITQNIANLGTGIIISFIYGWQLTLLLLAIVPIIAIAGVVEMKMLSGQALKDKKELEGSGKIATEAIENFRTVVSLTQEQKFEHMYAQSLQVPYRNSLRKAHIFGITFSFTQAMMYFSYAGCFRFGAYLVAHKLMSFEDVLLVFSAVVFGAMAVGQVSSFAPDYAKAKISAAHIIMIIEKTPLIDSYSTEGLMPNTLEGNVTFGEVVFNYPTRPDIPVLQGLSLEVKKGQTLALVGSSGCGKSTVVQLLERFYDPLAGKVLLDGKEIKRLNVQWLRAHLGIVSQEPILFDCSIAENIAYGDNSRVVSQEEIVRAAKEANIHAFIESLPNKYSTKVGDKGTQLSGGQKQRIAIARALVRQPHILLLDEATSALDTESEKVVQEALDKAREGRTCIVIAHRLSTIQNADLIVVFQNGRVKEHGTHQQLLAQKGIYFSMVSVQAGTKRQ
Experimental: (§4) On day 21, transport study was initiated by carefully removing the culture medium from both AP and BL sides. The Caco-2 monolayers were rinsed twice with pre-warmed HBSS and were incubated with the same solution at 37°C for 30 min. […] The final concentration of DMSO in these solutions was less than 1%. […] Incubation was performed at 37°C for 180 min, with shaking at 50 rpm. […] The samples were frozen immediately and stored below-20°C before analysis.

[3] = biological target: T2, multidrug resistance protein 2 (MRP2) (Homo sapiens, UniProt Q92887); experiment: Transporter inhibition experiment with probenecid (MRP2) in Caco-2 monolayer; format: in vitro ADME; conditions: 50 μmol/L compound, 600 μmol/L probenecid, AP to BL
T2 construct: endogenous in cells; host or cells: Caco-2 cells
T2 sequence (Q92887 whole entry): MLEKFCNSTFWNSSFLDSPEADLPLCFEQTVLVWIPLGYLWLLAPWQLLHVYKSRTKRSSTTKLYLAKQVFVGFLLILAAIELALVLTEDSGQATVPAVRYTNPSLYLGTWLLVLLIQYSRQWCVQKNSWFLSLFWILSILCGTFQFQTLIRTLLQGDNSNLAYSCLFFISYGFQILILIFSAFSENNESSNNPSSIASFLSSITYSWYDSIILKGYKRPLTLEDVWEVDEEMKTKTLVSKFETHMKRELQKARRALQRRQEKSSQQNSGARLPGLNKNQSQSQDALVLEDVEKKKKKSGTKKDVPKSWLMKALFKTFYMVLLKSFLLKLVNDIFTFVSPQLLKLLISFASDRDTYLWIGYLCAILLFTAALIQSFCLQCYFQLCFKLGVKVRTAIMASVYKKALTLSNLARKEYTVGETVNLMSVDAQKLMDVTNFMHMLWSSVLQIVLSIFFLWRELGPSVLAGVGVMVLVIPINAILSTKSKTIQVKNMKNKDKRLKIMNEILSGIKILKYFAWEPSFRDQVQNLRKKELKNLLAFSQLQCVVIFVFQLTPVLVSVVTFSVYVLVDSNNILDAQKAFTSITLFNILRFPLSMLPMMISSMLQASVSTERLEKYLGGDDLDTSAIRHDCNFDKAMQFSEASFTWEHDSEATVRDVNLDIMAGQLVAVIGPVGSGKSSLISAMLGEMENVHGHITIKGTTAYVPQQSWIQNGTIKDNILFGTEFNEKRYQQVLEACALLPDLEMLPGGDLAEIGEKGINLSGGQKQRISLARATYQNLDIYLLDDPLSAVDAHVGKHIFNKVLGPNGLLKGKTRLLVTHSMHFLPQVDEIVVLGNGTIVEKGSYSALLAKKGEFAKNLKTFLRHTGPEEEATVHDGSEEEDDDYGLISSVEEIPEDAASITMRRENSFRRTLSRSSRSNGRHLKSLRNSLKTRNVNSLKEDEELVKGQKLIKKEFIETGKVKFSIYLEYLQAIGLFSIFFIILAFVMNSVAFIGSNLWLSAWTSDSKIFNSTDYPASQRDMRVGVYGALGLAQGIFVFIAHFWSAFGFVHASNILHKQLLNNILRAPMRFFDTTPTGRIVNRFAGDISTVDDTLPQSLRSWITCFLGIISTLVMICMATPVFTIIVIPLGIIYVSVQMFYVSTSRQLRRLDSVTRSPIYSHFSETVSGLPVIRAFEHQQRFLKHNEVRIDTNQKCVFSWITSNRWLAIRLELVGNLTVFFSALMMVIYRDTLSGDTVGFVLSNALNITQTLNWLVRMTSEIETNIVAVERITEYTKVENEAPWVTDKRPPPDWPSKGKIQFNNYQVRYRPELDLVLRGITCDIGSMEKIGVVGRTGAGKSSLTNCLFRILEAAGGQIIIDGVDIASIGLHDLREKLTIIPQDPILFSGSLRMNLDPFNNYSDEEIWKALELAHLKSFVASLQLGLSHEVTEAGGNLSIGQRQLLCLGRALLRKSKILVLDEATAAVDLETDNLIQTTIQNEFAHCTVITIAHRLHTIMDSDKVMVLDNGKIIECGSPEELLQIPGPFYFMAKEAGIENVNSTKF
Experimental: as §4

[4] = Caco-2, in the equimolar mixture of the seven flavonoids
[5] = in the equimolar mixture of the seven flavonoids, 50 μmol/L

| SMILES | Survival rates (%) (Caco-2 cells; 25 μmol/L) | Survival rates (%) (Caco-2 cells; 50 μmol/L) | Survival rates (%) (Caco-2 cells; 100 μmol/L) | Papp A→B at 90 min, 50 μmol/L [1, 4] [nm/s] | Papp B→A at 90 min, 50 μmol/L [1, 4] [nm/s] | Papp A→B at 90 min, 50 μmol/L ([1]; Caco-2, individual compound) [nm/s] | Papp B→A at 90 min, 50 μmol/L ([1]; Caco-2, individual compound) [nm/s] | Transport percentage BL to AP in the equimolar mixture compared with individual state (Caco-2 cell monolayer; 50 μmol/L) | Absorbability assessment based on bidirectional Papp values (Caco-2 cell monolayer; compared with atenolol and propranolol) | Absorption mechanism (Caco-2 cell monolayer) | P ratio Papp AP→BL/Papp BL→AP (Caco-2 cell monolayer; [5]) | P ratio Papp AP→BL/Papp BL→AP (Caco-2 cell monolayer; individual compound, 50 μmol/L) | RSD% values for 24-hour stability [2] [%] | Inhibitory rate on murine ear edema model (murine ear edema model) [%] | Effect against influenza virus A (influenza virus A) | Substrate of P-gp (P-glycoprotein (P-gp)) | Effect of verapamil hydrochloride on the transport (P-glycoprotein (P-gp); 180 min) | Substrate of MRP2 [3] | Effect of probenecid on the transport ([3]; 180 min) |
| --- | --- | --- | --- | --- | --- | --- | --- | --- | --- | --- | --- | --- | --- | --- | --- | --- | --- | --- | --- |
| CCC(C)C(=O)O[C@@H]1[C@@H](O)[C@H](O)[C@@H](CO)O[C@H]1c1c(OC)cc(O)c2c(=O)cc(-c3ccc(O)cc3)oc12 (stereo partly drawn) [2”-O-(2”‘-methylbutanoyl)isoswertisin, (2S,3R,4S,5S,6R)-4,5-dihydroxy-2-(5-hydroxy-2-(4-hydroxyphenyl)-7-methoxy-4-oxo-4H-chromen-8-yl)-6-(hydroxymethyl)tetrahydro-2H-pyran-3-yl 2-methylbutanoate] | 108.8±10.3 | 127.6±4.9 | 128.9±12.5 | 34.9 ± 4.7 | 137 ± 11.4 | 45 ± 0.3 | 48 ± 5.3 | increased almost twice | moderate absorbable compound | passive diffusion without participation of transporter | 0.25 | ~1 and 0.94 | 3.89 | 35.5 | had an effect | – | – | – | – |
| O=c1cc(-c2ccc(O)c(O)c2)oc2c([C@@H]3O[C@H](CO)[C@@H](O)[C@H](O)[C@H]3O[C@@H]3O[C@H](CO)[C@H](O)[C@H](O)[C@H]3O)c(O)cc(O)c12 [2”-O-β-L-galactopyranosylorientin, 8-((2S,3R,4S,5S,6R)-4,5-dihydroxy-6-(hydroxymethyl)-3-(((2S,3R,4S,5R,6R)-3,4,5-trihydroxy-6-(hydroxymethyl)tetrahydro-2H-pyran-2-yl)oxy)tetrahydro-2H-pyran-2-yl)-2-(3,4-dihydroxyphenyl)-5,7-dihydroxy-4H-chromen-4-one] | 111.0±9.1 | 104.7±2.7 | 102.7±7.7 | 13.1 ± 3.8 | 6.9 ± 2.6 | 18.4 ± 0.1 | 45.8 ± 1.8 | – | – | transporter mediated efflux in addition to passive diffusion | 1.90 | 0.40 | 2.86 | – | – | nonsubstrates of P-gp | had no effect | substrate of MRP2 | significantly promoted |
